Measurements as given in patent US5830905A, “Compounds, compositions and methods for treatment of hepatitis C” (Viropharma Incorporated, priority 1996, dated 1998).

Molecular target: viral helicase (Hepatitis C virus (isolate H77), UniProt P27958)
Test: Assay for Helicase Inhibition
Type: biochemical, HCV
Conditions: average of three test results; read-out: IC50 (concentration required to achieve a 50% inhibition of helicase activity)
Procedure: Anti-viral activity was measured on the basis of inhibition of helicase activity. The biological studies of the anti-viral activity of the compounds of the invention are described below.
Example 6 illustrates the efficacy of compounds of the invention in inhibiting the viral helicase activity.
Assay for Helicase Inhibition
The helicase inhibition assay was performed according to methodology of the type described, for example, in: Lain et al., Nucleic Acids Res. 18:7003-7006 (1991); Warrener et al., J. Virol. 69:1720-1726 (1995); Kim et al., Biochem. Biophys. Res. Comm. 214:160-166 (1995). The value given in Table 1 represent the average of three test results in which the concentrations of anti-viral compound required to achieve a 50% inhibition of helicase activity (IC50) were measured.

viral helicase, sequence (P27958 1027-1657): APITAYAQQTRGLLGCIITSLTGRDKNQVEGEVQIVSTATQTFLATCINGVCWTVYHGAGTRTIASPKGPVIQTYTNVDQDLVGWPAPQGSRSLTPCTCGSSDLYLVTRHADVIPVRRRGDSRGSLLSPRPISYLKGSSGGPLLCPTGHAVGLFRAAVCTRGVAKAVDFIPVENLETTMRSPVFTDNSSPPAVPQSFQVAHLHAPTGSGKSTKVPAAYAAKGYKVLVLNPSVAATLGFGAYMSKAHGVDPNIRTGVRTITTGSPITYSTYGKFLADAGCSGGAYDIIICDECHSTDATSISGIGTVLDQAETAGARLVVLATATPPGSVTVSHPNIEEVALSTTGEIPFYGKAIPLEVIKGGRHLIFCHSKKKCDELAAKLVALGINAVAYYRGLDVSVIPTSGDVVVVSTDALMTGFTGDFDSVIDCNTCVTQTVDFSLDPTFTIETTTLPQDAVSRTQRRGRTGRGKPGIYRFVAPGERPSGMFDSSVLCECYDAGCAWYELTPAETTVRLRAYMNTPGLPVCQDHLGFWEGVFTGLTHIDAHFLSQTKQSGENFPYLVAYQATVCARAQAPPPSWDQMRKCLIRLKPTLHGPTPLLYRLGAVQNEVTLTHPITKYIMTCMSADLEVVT

c1cc(CN2CCC(C3=N[C@@H]4CCCC[C@H]4N3)CC2)ccc1CN1CCC(C2=N[C@@H]3CCCC[C@H]3N2)CC1 (relative stereo) [Example 3, 1,1'-[1,4-phenylenebis (methylene)]bis(4,4'-trans-(4,5,6,7,8,9-hexahydro)benzimidazoyl)piperidine]
IC50: 7 µM
